Test results as given in US20110201869A1, “METHOD AND APPARATUS FOR ENHANCED TRANSDERMAL DIFFUSION” (OBJ LIMITED, priority 2008, published 2011).

Assays:
[1] = Methyl Nicotinate Laser-Doppler vasodilation model (transdermal delivery in vivo); design: species or system human
Excerpt: FIG. 7 depicts the enhancing effects of the present invention on the delivery of Methyl Nicotinate through human skin in vivo. The Methyl Nicotinate Laser-Doppler vasodilation model was used (see Hollaway et al, J. Invest Dermatol 69:306-309, 1977; Wester et al., J. Invest Dermatol 83:515-517, 1984). […] In short, successful transdermal delivery of the rubifacient Methyl Nicotinate through the skin results in pronounced vasodilation, increased perfusion and erythema. […] The Methyl Nicotinate induced vasodilation can be measured using a non-invasive Laser Doppler Flow or Perfusion meter with data being provided as a numeric value equitable to local in vivo blood perfusion. The present experiment involved the saturation of 4 cm^2 tissue paper units with Methyl Nicotinate (5 mmolar in PBS). The Methyl Nicotinate tissues were applied to the skin of the volar forearm. The present invention (4 cm^2) and the passive surrogate units were placed over the Methyl Nicotinate soaked paper units. For 5 minutes one active and one passive unit were applied adjacently onto the skin of the forearm. Subsequently, all materials were removed from the skin and the skin was patted dry. Laser Doppler perfusion probes (Moor Instruments Laser Doppler Perfusion Meter) were placed over both areas and blood perfusion rates were monitored for a 30 minute period. […]

[2] = in vitro Franz Cell diffusion study through excised epidermis; format: in vitro ADME, piglet
Procedure: FIG. 4 is a plot of the substance Tetracaine through excised piglet ear epidermis in an in vitro Franz Cell diffusion study. Epidermal membranes were obtained by heat separation (60 sec at 60° C., Kligman and Christophers 1963). Skin integrity was determined by conductance measurement before the experiment. Skin sections from each ear were matched over the groups per experiment. Epidermal membranes were placed between the donor and receptor compartments of Franz-type diffusion cells with the stratum corneum facing the donor chamber. The epidermal membranes were equilibrated with the receptor solution (USP PBS, pH 7.4) for 30 min. The receptor compartment of the cell was immersed in a water bath at 37±0.5° C., and stirred every 5 min throughout the experiment. After equilibration, the donor solution consisting of 1 mL of 2 (FIG. 4a) or 4% Tetracaine HCL (FIG. 4B; Sigma) in PBS was added, and the present invention was suspended 3 mm above the surface of the donor fluid (i.e. 8 mm above the epidermal surface). The passive diffusion cells received the same donor drug concentration and were covered with parafilm only, i.e. no material of the present invention was applied. The administration period was 0-1 hr. Samples of the receptor solution were removed and replaced with fresh buffer over a 60 minute period. All samples were analysed for Tetracaine hydrochloride content by spectrophotometric detection (absorbance at 229 nm). The cumulative amount of Tetracaine hydrochloride in the receptor compartment versus time was plotted for both experiments. After the diffusion experiment the skin, still fixed in the diffusion chamber, was stained with standard HE dye. The diffusion area was investigated under a microscope for the occurrence of damage to the skin. Data derived from epidermis with low skin integrity was excluded from analysis and graphical depiction.
FIG. 5 is a plot of the substance Sumatriptan through excised piglet ear epidermis in an in vitro Franz Cell diffusion study. […] All samples were analysed for Sumatriptan content by spectrophotometric detection (absorbance at 285 nm). […]

SMILES: COC(=O)c1cccnc1 [Methyl Nicotinate]
- delivery through human skin in vivo with the present invention compared with passive diffusion (blood perfusion by Laser Doppler) ([1]; 5 mmolar in PBS, 5 minutes application on volar forearm, perfusion monitored 30 minutes, FIG. 7): effective at enhanced delivery
- diffusion with 480 gauss / 300 poles per meter versus 120 gauss / 500 poles per meter device ([1]; 2 milli-molar, human forearm skin in vivo, FIG. 8): similar

SMILES: CNS(=O)(=O)Cc1ccc2[nH]cc(CCN(C)C)c2c1 [Sumatriptan]
- diffusion through excised epidermis under the influence of the present invention compared to passive diffusion ([2]; Sumatriptan succinate 2 mg/ml donor, 0-30 min, FIG. 5): enhanced diffusion

SMILES: CCCCNc1ccc(C(=O)OCCN(C)C)cc1 [Tetracaine]
- diffusion through excised epidermis under the influence of the present invention compared to passive diffusion ([2]; 2% Tetracaine HCL in PBS donor, 0-1 hr, magnetic device suspended 8 mm above epidermal surface, FIG. 4A): enhanced diffusion
- diffusion through excised epidermis under the influence of the present invention compared to passive diffusion ([2]; 4% Tetracaine HCL in PBS donor, 0-1 hr, magnetic device suspended 8 mm above epidermal surface, FIG. 4B): enhanced diffusion
